Series [1] in a line: Cytotoxicity against HEK-Blue hTLR8 cells assessed as reduction in cell viability at 25 to 50 uM incubated for 24 hrs by MTT assay. The class given is toxicity, cell-based. The conditions noted are these: human, hek-blue htlr8, 24 h, dose 25-50 µM. For orientation: Tetrazolium dyes change colour on reduction, which living cells bring about.
Series [2] has as its system THP-1. The experiment in a line: Cytotoxicity against human THP-1 cells assessed as reduction in cell viability upto 100 uM incubated for 24 hrs by MTT assay. The class given is toxicity, cell-based. The conditions noted are these: thp-1, 24 h.
Series [3] in a line: Cytotoxicity against human PBMC cells assessed as reduction in cell viability upto 100 uM incubated for 24 hrs by LDH release assay. It counts as toxicity, cell-based. For orientation: LDH leaks from cells whose membrane has failed.
For series [4], the system named is T1, Toll-like receptor 8 (Homo sapiens), Q9NR97 [F495L].
T1 sequence (whole entry): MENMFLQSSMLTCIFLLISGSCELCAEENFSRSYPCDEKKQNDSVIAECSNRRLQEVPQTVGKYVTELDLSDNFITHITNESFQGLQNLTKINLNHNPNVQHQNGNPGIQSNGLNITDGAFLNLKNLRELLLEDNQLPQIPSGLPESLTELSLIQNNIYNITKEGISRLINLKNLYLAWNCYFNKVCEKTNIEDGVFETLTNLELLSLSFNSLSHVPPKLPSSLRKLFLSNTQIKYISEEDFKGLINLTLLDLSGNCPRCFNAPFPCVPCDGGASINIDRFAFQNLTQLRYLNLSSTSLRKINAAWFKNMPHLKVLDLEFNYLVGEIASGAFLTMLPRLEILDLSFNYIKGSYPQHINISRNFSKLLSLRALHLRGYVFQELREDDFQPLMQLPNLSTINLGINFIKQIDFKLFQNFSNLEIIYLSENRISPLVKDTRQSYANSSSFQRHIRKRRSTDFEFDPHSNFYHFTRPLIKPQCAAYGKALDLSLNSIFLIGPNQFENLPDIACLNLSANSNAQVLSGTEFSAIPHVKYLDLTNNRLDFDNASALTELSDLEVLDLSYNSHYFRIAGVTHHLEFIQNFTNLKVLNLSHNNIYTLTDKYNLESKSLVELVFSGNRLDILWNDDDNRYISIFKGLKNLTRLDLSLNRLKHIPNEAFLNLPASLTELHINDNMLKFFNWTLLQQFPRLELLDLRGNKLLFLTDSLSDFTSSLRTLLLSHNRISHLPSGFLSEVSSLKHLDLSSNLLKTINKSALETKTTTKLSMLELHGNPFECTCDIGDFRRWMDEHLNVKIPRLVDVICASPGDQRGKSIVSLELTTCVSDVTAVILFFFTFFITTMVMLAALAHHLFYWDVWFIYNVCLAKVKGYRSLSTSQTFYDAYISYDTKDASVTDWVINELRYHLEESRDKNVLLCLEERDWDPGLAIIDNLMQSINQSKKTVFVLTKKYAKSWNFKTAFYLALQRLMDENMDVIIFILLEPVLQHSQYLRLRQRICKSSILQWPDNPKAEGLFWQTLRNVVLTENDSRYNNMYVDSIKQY
The experiment in a line: Antagonist activity at human TLR8 F495L mutant transfected in HEK293 cells assessed as inhibition of TL8-506 induced NFkappaB activation at 1 uM preincubated with compound for 1 hrs followed by TL8-506 addition and measured after 24 hrs by Quanti-blue reagent based SEAP reporter assay. The conditions noted are these: filed as antagonist. It counts as cell-based. In general terms: A reporter such as luciferase makes a cellular process visible.

Series [5] has the same test system. Kind of series: Antagonist activity at human TLR8 F495L mutant transfected in HEK293 cells assessed as inhibition of CL075 induced NFkappaB activation at 1 uM preincubated with compound for 1 hrs followed by CL075 addition and measured after 24 hrs by Quanti-blue reagent based SEAP reporter assay. It counts as cell-based. The conditions noted are these: filed as antagonist.

Active and inactive are the calls of the source. The rule behind the calls is not given here.

With `Cc1noc(C)c1COc1ccc(C(=O)NCC(c2ccco2)N(C)C)cc1` (configuration not stated), the Activity result in series [1] is on record as “Non-toxic”.
In the case of `COc1cc(C(=O)NCC(c2ccc(C)cc2)N(C)C)ccc1OCc1c(C)noc1C` (configuration not stated), the Activity result in series [1], in series [2] and in series [3] was “Non-toxic” throughout.
For `N#Cc1ccc(N2C[C@H](N)C[C@H](C(F)(F)F)C2)c2cccnc12`, the result in series [4] and in series [5] was Active.
Take `COc1cc(C(=O)NCCN2CCCC2)ccc1OCc1c(C)noc1C`: the Activity entry in series [1] is given as “Non-toxic”.

Source of the values: ChEMBL document CHEMBL6153139, “Discovery of Novel Isoxazole-Based Small-Molecule Toll-Like Receptor 8 Antagonists” (J Med Chem, 2025).
